Laboratory results reported in patent US6406853B1, “Interventions to mimic the effects of calorie restriction” (The Regents of the University of California, priority 1999, dated 2002).
Entries after “also recorded” stand apart in the source; their conditions may differ. Read-outs that look alike come from different tables or passages of the source.

Experiments:
[1] = STZ-treated animals; general statement; cited from earlier work
GRP78 mRNA = experiment: Hepatic GRP78 mRNA in fasted and refed mice (dot-blot); type: in vivo; details: liver; for GRP78 mRNA response to feeding (refed mice): fasted 48 h, i.p. injection 30 min before and 30 min after feeding, killed 1.5 h after feeding, dibutyryl-cAMP given with theophylline; for GRP78 mRNA in fasted mice: mice fasted 48 h, two i.p. injections; for postprandial induction of GRP78 mRNA in STZ-diabetic mice: STZ-induced diabetes combined with dibutyryl-cAMP and theophylline
Method: (§1) Retired male Swiss-Webster breeder mice were purchased from Jackson Laboratories. Beginning 30 days before the studies, the mice were fed Monday and Wednesday 11 g and Friday 16.6 g of the control diet daily at 0900 h. In fasting-feeding studies, mice were deprived of food for 48 h, fed 5.5 g of the control diet at 0900 h, and killed 90 min later. The food was consumed within 30 min. Diabetes was induced by three weekly intraperitoneal injections of streptozotocin [10 mg/100 g body weight (b.w.)] in 50 mM sodium citrate, pH 4.5. Mice were diabetic one week after the last injection. Only mice with blood glucose level higher than 3 mg/ml were used. Mice injected with equivalent volumes of sodium citrate served as controls for the STZ-diabetic mice. Adrenalectomized and sham-operated mice were purchased from Jackson Laboratories. Dibutyryl cAMP (Sigma; 18 mg.100 g b.w.), and theophylline (Sigma; 3 mg/100 g b.w), glucagon (Sigma; 300 μg/100 g b.w.), dexamethasone (Sigma; 125 μg/100 g b.w), cycloheximide (Sigma; 4 mg.100 g b.w.), and puromycin (Sigma; 10 mg.100 g b.w.), were administered intraperitonealy to mice as specified in the figure legends. Mice received two doses of each drug or drug combination. The first injection was administered 30 min before feeding, and the second injection was administered 30 min after feeding. Mice were killed 1.5 h after the start of feeding. Drug-injected mice consumed similar amounts of food as control animals during the feeding period. All animal use protocols were approved by the institutional animal use committee of the University of California, Riverside.
Mice were killed and the livers, kidneys, and muscle were removed. Muscle from the hind legs and back was removed and pooled for each animal. Tissues were flash frozen in liquid nitrogen. Approximately 0.2 g of frozen tissue was homogenized for 40 s in 4 ml of TRI Reagent (Molecular Research Center, Cincinnati, Ohio) using a Tekmar Tissuemizer (Tekmar, Cincinnait, Ohio) at a setting of 55. RNA was isolated as described by the TRI Reagent supplier. RNA was resuspended in FORMAzol (Molecular Research Center) and Northern and dot blots were performed using 20 and 10 μg of RNA respectively. The RNA was analyzed using Northern blots to verify its integrity. Dot blots were used to quantify mRNA levels (24; 27). Specific mRNA levels were normalized to the level of total RNA and/or mRNA present in each sample using hybridization with radiolabeled complementary DNA to 18S rRNA and/or transcription factor S-II, as indicated in the figure legends (12; 27). The murine ERp72 2.5 kb cDNA was excised with BamHI from pcD72-1 (19). The 1235 bp murine GRP75 coding fragment was excised with HindIII from pG7z-PBP1.8 (6). A 1.5 kb coding fragment of GRP78 cDNA was produced by digestion of p3C5 with EcoRI and PstI (15). A 1.4 kb hamster GRP94 coding fragment was produced by EcoRI and Sa/K digestion of p4A3 (15). A 664 bp coding fragment of rat calreticulin (nucleotides 148 to 812) was produced by PCR from GT10.U1 (23). The entire 2.4 kb cDNA of murine PDI was excised from pGEM59.4 with SacI and BamHII (19). A 1 kb coding fragment of hamster GRP170 cDNA was excised with EcoRI and XhoI from pCRtmII (16). The 1.9 kb cDNA of murine ERp57 was excised with HindIII and SstI from pERp61 (18). The 1 kb cDNA of murine HSC70 was excised with PstI from phsc1.5 (9). The 1.3 kb PEPCK coding fragment was produced by SphI followed by SalI digestions of pGEM5ZEP (a gift from Dr. Ganner D. K. Vanderbilt University School of Medicine, Nashville, Tenn.). The fragments were isolated by agarose gel electrophoresis and radioactively labeled using a ^T7QuickPrime Kit (Pharmacia) according to the manufacturer's instructions.

hepatic gene expression = experiment: Global hepatic gene expression profile (GeneChip arrays, correlation coefficients); type: in vivo, mice
Method: GeneChip oligonucleotide-based high-density array RNA expression assays were performed according to the standard Affrymetrix protocol. The biotinylated, fragmented cRNA was hybridized to the Mu11KsubA and Mu11KsubB GeneChip arrays (Affymetrix, Santa Clara, Calif.), which contain targets for more than 11,000 known mouse genes and ESTs. The arrays were washed, stained and scanned. Scanned image analysis and data quantification were performed using the Affymetrix GeneChip analysis suite v3.2 at default parameter settings. Resultant data were normalized by global scaling.
Data analysis. Data sets were normalized furher using GeneSpring 3.0 (Silicon Genetics, San Carlos, Calif.). Negative expression levels were forced to zero, and the expression data for each animal divided by the median of all experimental values for that chip above an expression level of 10. This step reduced cliip-to-chip signal variation. Fold change in expression was calculated by dividing the mean of the expression levels in the CR groups by the mean of the expression levels in the control group.

Life span of mice = type: in vivo; details: mice fed aminoguanidine
PEPCK mRNA = experiment: Hepatic PEPCK mRNA in fasted and refed mice (positive control); type: in vivo; details: liver; mice fasted 48 h or refed
Method: as §1, with “The first injection was administered 30 min before feeding, and the second injection was administered 30 min after feeding. Mice were killed 1.5 h after the start of feeding. Drug-injected mice consumed similar amounts of food as control animals during the feeding period. All animal use protocols were approved by the institutional animal use committee of the University of California, Riverside.” left out
Mice were killed and the livers, kidneys, and muscle were removed. […] The RNA was analyzed using Northern blots to verify its integrity. Dot blots were used to quantify mRNA levels (24; 27). […]

CN(N=O)C(=O)N[C@H]1C(O)O[C@H](CO)[C@@H](O)[C@@H]1O (mixture of isomers) [STZ, streptozotocin]
effect on life span [1]: shortens
GRP78 mRNA response to feeding (refed mice) (GRP78 mRNA): blunted response; also recorded: significantly reduced
GRP78 mRNA in fasted mice (GRP78 mRNA): did not modify
hepatic gene expression compared with young CR and young control mice (hepatic gene expression; STZ-diabetic mice, diabetic about 4 weeks): very different

N=C(N)NN [aminoguanidine, Aminoguanidine]
effect on life span (Life span of mice): little or no effect
correlation of gene expression with old CR or old control mice (hepatic gene expression; mice fed aminoguanidine): did not correlate
effect on hepatic gene expression (hepatic gene expression; mice fed aminoguanidine): large effect

C[C@@H]1C[C@@H]([C@H](O)CC2CC(=O)NC(=O)C2)C(=O)[C@@H](C)C1 [cycloheximide]
PEPCK mRNA in both fasted and refed mice (PEPCK mRNA): increased
GRP78 mRNA response to feeding (refed mice) (GRP78 mRNA): strongly induced
GRP78 mRNA in fasted mice (GRP78 mRNA): strongly induced; also recorded: induced the mRNA to the same extent

CCCC(=O)Nc1ncnc2c1ncn2[C@@H]1O[C@@H]2COP(=O)(O)O[C@H]2[C@H]1OC(=O)CCC [dibutyryl cAMP, Dibutyryl cAMP]
postprandial induction of GRP78 mRNA in STZ-diabetic mice (GRP78 mRNA; listed as cAMP): obliterated
postprandial induction of GRP78 mRNA in STZ-diabetic mice (GRP78 mRNA; listed as dibutyryl-cAMP): absence of a feeding response
GRP78 mRNA response to feeding (refed mice) (GRP78 mRNA): reduced the response
GRP78 mRNA response to feeding (refed mice) (GRP78 mRNA; listed as dibutyryl-cAMP): blunted

COc1ccc(C[C@H](N)C(=O)N[C@H]2[C@@H](O)[C@H](n3cnc4c(N(C)C)ncnc43)O[C@@H]2CO)cc1 [puromycin]
GRP78 mRNA response to feeding (refed mice) (GRP78 mRNA): fully induced
GRP78 mRNA in fasted mice (GRP78 mRNA): modestly induced; also recorded: partial induction

glucagon
GRP78 mRNA response to feeding (refed mice) (GRP78 mRNA): reduced the response; also recorded: blunted
